We go through 28 molecules from patent US20080085886A1, “Aza-benzofuranyl compounds and methods of use” (GENENTECH, INC., priority 2006, published 2008).

This assay has as its system cellular p-ERK in HCT116 human colorectal carcinoma / A375 human malignant melanoma cell lines. Put plainly: Phospho-ERK cell-based assay (ELISA), Example 4. The note with it: in either one of the cell lines (HCT116, A375), 2 h or 24 h exposure. As for the experimental part:
Example 4 Phospho-ERK Cell-Based Assay
Compounds are tested in a cell-based phospho-ERK ELISA using the following cell lines:
HCT116 human colorectal carcinoma (ATCC)
A375 human malignant melanoma (ATCC)
Both cell lines are maintained in DMEM/F12 (1:1) media (Gibco) supplemented with 10% FCS at 37° C. in a 5% CO2 humidified incubator.
Cells are seeded in 96-well plates at 2,000 cells/well and after 24 h they are exposed to different concentrations of compounds in 0.83% DMSO. Cells are grown for a further 2 h or 24 h, fixed with formaldehyde (2% final) and permeabilised with methanol. Following blocking with TBST-3% BSA, fixed cells are incubated with primary antibody (anti-phospho ERK from rabbit) over-night at 4° C. Cells are incubated with Propidium Iodide (DNA fluorescent dye) and detection of cellular p-ERK is performed using an anti-rabbit secondary antibody conjugated to the fluorescent Alexa Fluor 488 dye (Molecular probes). The fluorescence is analysed using the Acumen Explorer (TTP Labtech), a laser-scanning microplate cytometer, and the Alexa Fluor 488 signal is normalised to the PI signal (proportional to cell number).
The EC50 is defined as the concentration at which a given compound achieves a signal half way between the baseline and the maximum response. EC50 values are calculated using the XLfit software package (version 2.0.5).

The structures appear in SMILES notation.

On to `O=C(c1oc2ccncc2c1Nc1ccc(I)cc1F)N1CC(O)C1` [Example 122, (3-(2-fluoro-4-iodophenylamino)furo[3,2-c]pyridin-2-yl)(3-hydroxyazetidin-1-yl)methanone], for which the EC50 (usually the concentration at which the effect is half-maximal) was less than 10 µM.
In the case of `CNC(=O)c1oc2ccncc2c1Nc1ccc(I)cc1F` [Example 91, 3-(2-fluoro-4-iodophenylamino)-N-methylfuro[3,2-c]pyridine-2-carboxamide] it was less than 10 µM.
In the case of `CONC(=O)c1oc2ccncc2c1Nc1ccc(I)cc1F` [Example 29, 3-(2-Fluoro-4-iodo-phenylamino)-furo[3,2-c]pyridine-2-carboxylic acid methoxy-amide] it was less than 10 µM; in that of `O=C(NOCCO)c1oc2c(F)cncc2c1Nc1ccc(I)cc1F` [Example 139, 7-Fluoro-3-(2-fluoro-4-iodo-phenylamino)-furo[3,2-c]pyridine-2-carboxylic acid (2-hydroxy-ethoxy)-amide], less than 10 µM.
On to `O=C(c1oc2ccncc2c1Nc1ccc(I)cc1F)N1C[C@@H](O)[C@@H](O)C1` [Example 73, (3-(2-fluoro-4-iodophenylamino)furo[3,2-c]pyridin-2-yl)((3S,4R)-3,4-dihydroxypyrrolidin-1-yl)methanone], for which the EC50 is less than 10 µM.
In the case of `O=C(NOCc1ccccc1)c1oc2ccncc2c1Nc1ccc(I)cc1F` [Example 44, (2-Fluoro-4-iodo-phenylamino)-N-benzyloxyfuro[3,2-c]pyridine-2-carboxamide], the concentration for a half-maximal effect (EC50) was less than 10 µM.
In the case of `N[C@@H]1CCN(C(=O)c2oc3ccncc3c2Nc2ccc(I)cc2F)C1` [Example 74, (3-(2-fluoro-4-iodophenylamino)furo[3,2-c]pyridin-2-yl)((R)-3-aminopyrrolidin-1-yl)methanone] it was less than 10 µM; in that of `O=C(c1oc2ccncc2c1Nc1ccc(I)cc1F)N1C[C@H](O)[C@@H](O)C1` [Example 60, (3-(2-fluoro-4-iodophenyl amino)furo[3,2-c]pyridin-2-yl)((3S,4S)-3,4-dihydroxypyrrolidin-1-yl)methanone], less than 10 µM.
In the case of `O=C(c1oc2ccncc2c1Nc1ccc(I)cc1F)N1CC[C@@H](O)[C@H]1CO` [Example 123] it was less than 10 µM.
Molecule `CN(C)C(=O)c1oc2ccncc2c1Nc1ccc(I)cc1F` [Example 83, 3-(2-fluoro-4-iodophenylamino)-N,N-dimethylfuro[3,2-c]pyridine-2-carboxamide] yielded an EC50 of less than 10 µM.
In the case of `C[C@H](O)CONC(=O)c1oc2c(F)cncc2c1Nc1ccc(I)cc1F` [Example 155, 7-Fluoro-3-(2-fluoro-4-iodo-phenylamino)-furo[3,2-c]pyridine-2-carboxylic acid ((S)-2-hydroxy-propoxy)-amide] it was less than 10 µM; in that of `CCONC(=O)c1oc2ccncc2c1Nc1ccc(I)cc1F` [Example 50, (2-Fluoro-4-iodo-phenyl amino)-N-ethoxyfuro[3,2-c]pyridine-2-carboxamide], less than 10 µM; in that of `C[C@@H](CO)NC(=O)c1oc2ccncc2c1Nc1ccc(I)cc1F` [Example 76, 3-(2-fluoro-4-iodophenylamino)-N-((S)-1-hydroxypropan-2-yl)furo[3,2-c]pyridine-2-carboxamide], less than 10 µM.
In the case of `O=C(NOCCCO)c1oc2ccncc2c1Nc1ccc(I)cc1F` [Example 45, (2-Fluoro-4-iodo-phenyl amino)-N-(3-hydroxypropoxy)furo[3,2-c]pyridine-2-carboxamide] it was less than 10 µM; in that of `O=C(NOc1ccccc1)c1oc2ccncc2c1Nc1ccc(I)cc1F` [Example 111, 3-(2-Fluoro-4-iodo-phenylamino)-N-phenyloxyfuro[3,2-c]pyridine-2-carboxamide], less than 10 µM.
For `Cc1nccc2oc(C(=O)NOCCO)c(Nc3ccc(I)cc3F)c12` [Example 144, 3-(2-Fluoro-4-iodo-phenylamino)-methyl-furo[3,2-c]pyridine-2-carboxylic acid (2-hydroxy-ethoxy)-amide], the concentration giving a half-maximal response (EC50) is less than 10 µM.
In the case of `O=C(NCCCO)c1oc2ccncc2c1Nc1ccc(I)cc1F` [Example 61, 3-(2-fluoro-4-iodophenylamino)-N-(3-hydroxypropyl)furo[3,2-c]pyridine-2-carboxamide] it was less than 10 µM; in that of `O=C(c1oc2ccncc2c1Nc1ccc(I)cc1F)N1CCC[C@@H]1CO` [Example 87, (3-(2-fluoro-4-iodophenylamino)furo[3,2-c]pyridin-2-yl)((R)-2-(hydroxylmethyl)pyrrolidin-1-yl)methanone], less than 10 µM.
In the case of `O=C(c1oc2ccncc2c1Nc1ccc(I)cc1F)N1C[C@@H](O)[C@H](O)[C@H]1CO` [Example 124, (3-(2-fluoro-4-iodophenylamino)furo[3,2-c]pyridin-2-yl)((2R,3R,4R)-3,4-dihydroxy-2-(hydroxymethyl)pyrrolidin-1-yl)methanone] it was less than 10 µM; in that of `O=C(NOCCO)c1oc2ccncc2c1Nc1ccc(Br)cc1Cl` [Example 26, 3-(4-Bromo-2-chloro-phenylamino)-furo[3,2-c]pyridine-2-carboxylic acid (2-hydroxy-ethoxy)-amide], less than 10 µM; in that of `O=C(c1oc2ccncc2c1Nc1ccc(I)cc1F)N1CC[C@H](O)C1` [Example 70, (3-(2-fluoro-4-iodophenylamino)furo[3,2-c]pyridin-2-yl)((S)-3-hydroxypyrrolidin-1-yl)methanone], less than 10 µM.
In the case of `O=C(NC(CO)CO)c1oc2ccncc2c1Nc1ccc(I)cc1F` [Example 68, 3-(2-fluoro-4-iodophenylamino)-N-(1,3-dihydroxypropan-2-yl)furo[3,2-c]pyridine-2-carboxamide] it was less than 10 µM.
For the molecule `O=C(c1oc2ccncc2c1Nc1ccc(I)cc1F)N1CC[C@H](O)[C@H]1CO` [Example 131, (3-(2-fluoro-4-iodophenylamino)furo[3,2-c]pyridin-2-yl)((2R,3S)-3-hydroxy-2-(hydroxymethyl)pyrrolidin-1-yl)methanone], the EC50 was less than 10 µM.
`CC(C)(CO)ONC(=O)c1oc2c(F)cncc2c1Nc1ccc(I)cc1F` [Example 156, 7-Fluoro-3-(2-fluoro-4-iodo-phenylamino)-furo[3,2-c]pyridine-2-carboxylic acid (2-hydroxy-1,1-dimethyl-ethoxy)-amide] registered an EC50 of less than 10 µM.
In the case of `O=C(c1oc2ccncc2c1Nc1ccc(I)cc1F)N1C[C@H](O)C[C@@H]1CO` [Example 126, (3-(2-fluoro-4-iodophenylamino)furo[3,2-c]pyridin-2-yl)((2R,4R)-4-hydroxy-2-(hydroxymethyl)pyrrolidin-1-yl)methanone] it was less than 10 µM.
In the case of `O=C(NCCCONC(=O)c1oc2ccncc2c1Nc1ccc(I)cc1F)c1ccccn1` [Example 46] it was less than 10 µM; in that of `O=C(NOCCO)c1oc2ccnc(Cl)c2c1Nc1ccc(I)cc1F` [Example 147, 4-Chloro-3-(2-fluoro-4-iodo-phenylamino)-furo[3,2-c]pyridine-2-carboxylic acid (2-hydroxy-ethoxy)-amide], less than 10 µM.
`C[C@H](O)CONC(=O)c1oc2ccncc2c1Nc1ccc(I)cc1F` [Example 118, 3-(2-Fluoro-4-iodo-phenylamino)-furo[3,2-c]pyridine-2-carboxylic acid ((S)-2-hydroxy-propoxy)-amide] returned a half-maximal effective concentration (EC50) of less than 10 µM.
